{"source": "patent US12600740B2", "about": "“Fluorinated N-acetyl glucosamine analogs and xylose derivatives” (UTI Limited Partnership, priority 2018, dated 2026)", "key": {"[1]": {"system": "CSPG production by astrocytes", "experiment": "Western blot of astrocyte conditioned medium, MAB2030 (chondroitin sulfate GAG stubs)", "type": "cell-based, mouse", "details": "for effect on CSPG production by astrocytes: astrocyte conditioned media, 50 μM, 48 hours; for Reduce CSPG production: astrocytes, significance class", "excerpt": "Astrocytes are major producers of CSPGs following injury in the CNS [Jones, L. L., Margolis, R. U. & Tuszynski, M. H. The chondroitin sulfate proteoglycans neurocan, brevican, phosphacan, and versican are differentially regulated following spinal cord injury. Experimental Neurology 182, 399-411 (2003); Tang, X., Davies, J. E. & Davies, S. J. Changes in distribution, cell associations, and protein expression levels of NG2, neurocan, phosphacan, brevican, versican V2, and tenascin-C during acute to chronic maturation of spinal cord scar tissue. […] The Journal of neuroscience: the official journal of the Society for Neuroscience 20, 2427-2438 (2000); McKeon, R. J., Jurynec, M. J. & Buck, C. R. The chondroitin sulfate proteoglycans neurocan and phosphacan are expressed by reactive astrocytes in the chronic CNS glial scar. The Journal of neuroscience: the official journal of the Society for Neuroscience 19, 10778-10788 (1999); Haas, C. A., Rauch, U., Thon, N., Merten, T. & Deller, T. Entorhinal cortex lesion in adult rats induces the expression of the neuronal chondroitin sulfate proteoglycan neurocan in reactive astrocytes. The Journal of neuroscience: the official journal of the Society for Neuroscience 19, 9953-9963 (1999)] and they may help drive progression of disability in a model of progressive MS [Mayo, L. et al. Regulation of astrocyte activation by glycolipids drives chronic CNS inflammation. Nature medicine 20, 1147-1156 (2014)]. Therefore astrocytes were used as model cells to determine the ability of the sugar analogs to reduce synthesis of CSPGs. Since CSPGs are exported out of cells, the conditioned media from analog-treated astrocytes were probed by Western blots (FIG. 4). We used antibodies to both the stubs of chondroitin sulfate GAGs attached to the core protein (MAB2030) and to intact 4-sulfated chondroitin sulfate sidechains (2H6) (FIG. 4a). Particularly, we used the 2H6 antibody to label intact 4-sulfated chondroitin sulfate sidechains, and the MAB2030 antibody to detect the stubs of chondroitin sulfate GAGs attached to the core protein. […] 1998, 160 (8), 3812-3819. Poole Poole C. A.; Glant T. T.; Schofield J. R.; Chondrons from articular cartilage. (IV). Immunolocalization of proteoglycan epitopes in isolated canine tibial chondrons. J. Histochem. Cytochem. 1991, 39 (9), 1175-1187].\nAstrocytes were plated in uncoated 6-well plates (3 replicate wells per treatment) at 1×10^6 cells/well in mixed glial media, and incubated at 5% CO2 and 37° C. Astrocytes were treated with compounds at 50 μM in AIM-V media for 48 hours. Media was pooled from 3 replicate wells in 15 ml 100K cutoff centricon tubes (EMD Millipore, #UFC905008), which were spun on an ultracentrifuge at 5000× g for 2 cycles of 10 minutes each. When harvested, the cell lysate was kept on ice for 5 minutes with 250 μL of RIPA buffer (ThermoFisher Scientific #89900) containing proteinase inhibitor, and then collected and centrifuged at 14000 g for 5 minutes. Total protein was quantified using a Bradford assay. Conditioned media that were to be probed for chondroitin 4-sulfate GAGs (Millipore, #MAB2030) were first digested with 0.2 U/ml chondroitinase ABC for overnight at 37° C. to remove chondroitin sulfate sidechains. Blots that were to be probed with CSA (2H6, Cosmo) or CS56 (Abcam #ab11570) were not exposed to chondroitinase ABC. Samples were heat denatured with NuPAGE® LDS Sample buffer at 70° C. for 10 minutes and then loaded into 3-8% tris-acetate pre-cast gels (ThermoFisher, #EA0478BOX). The gels were electrophoresed at a constant 150 V for 90 minutes and transferred to a […] polyvinylidene fluoride membrane at a constant 250 mA for 60 minutes. The membranes were blocked for one hour with 10% skim milk in Tris-buffered saline (TBS; 0.9% NaCl, 10 mM Tris-HCl, pH 7.5) containing 0.5% Tween 20 (TBS-T). Primary antibodies were added in 3% skim milk and incubated overnight at 4° C. […]"}, "splenocytes": {"system": "splenocytes", "experiment": "Splenocyte thymidine proliferation assay (anti-CD3/anti-CD28)", "type": "cell-based, mouse", "details": "for Reduce T cell proliferation: activated splenocytes, significance class", "procedure": "It was assessed whether the glucosamine analogs have immunomodulatory properties on splenocytes isolated in culture. T cells within the splenocyte pool were polyclonally activated with anti-CD3 and anti-CD28 antibodies in the presence of compounds for 48 hours, and proliferation was determined by the uptake of tritiated thymidine and expressed as counts per minute. The relative change in proliferation of treated versus control splenocytes was taken in order to rank the compounds across multiple independent experiments (FIG. 8a).\nThe spleens were isolated from 8-10-week-old female C57BL/6 mice and homogenized. The cells were isolated by Ficoll gradient and spun for 30 min at 1,800 r.p.m. The cell suspension was removed and the cells were washed once with PBS. The cell pellet was subsequently re-suspended in Roswell Park Memorial Institute media containing 10% fetal bovine serum, 1% penicillin/streptomycin, 1% sodium pyruvate and 1% L-glutamine. Trypan blue exclusion was used to count live cells, and the cells were plated at 2.5×10^5 cells per well in a round-bottom 96-well plate and activated with 1,000 ng/ml plate-bound anti-CD3 and 1,000 ng/ml anti-CD28 suspended in media to preferentially activate T lymphocytes. Compounds were added at final concentrations of 25 μM. The cells were kept at 37° C. and 5% CO2 for 30 h, after which 10 μl/well (1 μCi per well) of 3H-thymidine was added for 18 h. The cells containing thymidine were harvested onto filter mats using a cell harvester and mats were allowed to dry for 24 h. The results were read by liquid scintillation counts."}}, "data": [{"smiles": "CC(=O)O[C@@H]1[C@@H](OC(C)=O)[C@H](OCCS(=O)(=O)[O-])OC[C@H]1OC(C)=O.[Na+]", "note": "[Compound 22, 2-Sulfoethyl 2,3,4-tri-O-acetyl-β-D-xylopyranoside, sodium salt]", "values": [{"measurement": "effect on CSPG production by astrocytes", "setting": "[1]", "value": "CSPG production was not impacted"}]}, {"smiles": "CC(=O)OC[C@H]1OC(OC(C)=O)[C@H](NC(=O)C(F)(F)F)[C@@H](OC(C)=O)[C@@H]1F", "note": "(stereo partly drawn) [Compound 9, 1,3,6-Tri-O-acetyl-2,4-dideoxy-4-fluoro-2-trifluroacetamido-α/β-D-glucopyranose]", "values": [{"measurement": "effect on CSPG production by astrocytes", "setting": "[1]", "value": "did not lower CSPG production in astrocytes"}, {"measurement": "Reduce CSPG production", "setting": "[1]", "value": "n.s."}, {"measurement": "splenocyte proliferation", "setting": "splenocytes; 25 μM, 48 hours", "value": "reduced splenocyte proliferation"}, {"measurement": "Reduce T cell proliferation", "setting": "splenocytes", "value": "*** (***p < 0.001)"}]}, {"smiles": "CC(=O)O[C@@H]1[C@@H](OC(C)=O)[C@@H](OCCCCCCS(=O)(=O)[O-])OC[C@H]1OC(C)=O.[Na+]", "note": "[Compound 24, 6-Sulfohexyl 2,3,4-tri-O-acetyl-α-D-xylopyranoside, sodium salt]", "values": [{"measurement": "effect on CSPG production by astrocytes", "setting": "[1]", "value": "did not act as an inhibitor"}]}, {"smiles": "CO[C@H]1[C@H](F)[C@@H](COC(C)=O)OC(OC(C)=O)[C@@H]1NC(C)=O", "note": "(stereo partly drawn) [Compound 6, 2-Acetamido-1,6-di-O-acetyl-2,4-dideoxy-4-fluoro-3-O-methyl-α/β-D-glucopyranose]", "values": [{"measurement": "effect on CSPG production by astrocytes", "setting": "[1]", "value": "did not affect CSPG synthesis"}, {"measurement": "Reduce CSPG production", "setting": "[1]", "value": "n.s."}, {"measurement": "Reduce T cell proliferation", "setting": "splenocytes", "value": "n.s."}]}, {"smiles": "O[C@@H]1[C@@H](O)[C@H](OCc2ccccc2)OC[C@H]1O", "note": "[Compound 19, reference compound]", "values": [{"measurement": "effect on CSPG production by astrocytes", "setting": "[1]", "value": "CSPG production was not impacted"}, {"measurement": "Reduce CSPG production", "setting": "[1]", "value": "n.s."}, {"measurement": "Reduce T cell proliferation", "setting": "splenocytes", "value": "n.s."}]}, {"smiles": "CC(=O)O[C@@H]1[C@@H](OC(C)=O)[C@H](OCCO)OC[C@H]1OC(C)=O", "note": "[Compound 20, 2-Hydroxyethyl 2,3,4-tri-O-acetyl-β-D-xylopyranoside]", "values": [{"measurement": "effect on CSPG production by astrocytes", "setting": "[1]", "value": "CSPG production was not impacted"}]}, {"smiles": "CC(=O)N[C@H]1C(O)O[C@H](CO)[C@@H](O)[C@@H]1O", "note": "(stereo partly drawn) [GlcNAc, N-Acetyl-D-glucosamine, reference compound]", "values": [{"measurement": "effect on CSPG production by astrocytes", "setting": "[1]", "value": "did not affect CSPG production"}]}, {"smiles": "CC(=O)O[C@@H]1OC[C@@H](F)[C@H](OC(C)=O)[C@H]1OC(C)=O", "note": "[Compound 28, 1,2,3-tri-O-acetyl-4-deoxy-4-fluoro-β-D-xylopyranose]", "values": [{"measurement": "effect on CSPG production by astrocytes", "setting": "[1]", "value": "did not reduce CSPG production"}]}, {"smiles": "CC(=O)O[C@@H]1[C@@H](OC(C)=O)[C@H](OCCOCCOCCOCCO)OC[C@H]1OC(C)=O", "note": "[Compound 21, 2-(2-(2-(2-Hydroxyethoxy)ethoxy)ethoxy)ethyl 2,3,4-tri-O-acetyl-β-D-xylopyranoside]", "values": [{"measurement": "effect on CSPG production by astrocytes", "setting": "[1]", "value": "effective at reducing CSPGs"}]}, {"smiles": "CC(=O)N[C@H]1C(OC(C)=O)O[C@H](COC(C)=O)[C@H](Cl)[C@@H]1OC(C)=O", "note": "(stereo partly drawn) [Compound 15, 2-Acetamido-1,3,6-tri-O-acetyl-2,4-dideoxy-4-chloro-α/β-D-galactopyranoside]", "values": [{"measurement": "Reduce CSPG production", "setting": "[1]", "value": "n.s."}, {"measurement": "Reduce T cell proliferation", "setting": "splenocytes", "value": "* (*p < 0.05)"}]}, {"smiles": "COC[C@H]1OC(OC(C)=O)[C@H](NC(C)=O)[C@@H](OC)[C@@H]1F", "note": "(stereo partly drawn) [Compound 5, 2-Acetamido-1-O-acetyl-2,4-dideoxy-4-fluoro-3,6-di-O-methyl-α/β-D-glucopyranose]", "values": [{"measurement": "effect on CSPG production by astrocytes", "setting": "[1]", "value": "did not affect CSPG synthesis"}, {"measurement": "Reduce CSPG production", "setting": "[1]", "value": "n.s."}, {"measurement": "Reduce T cell proliferation", "setting": "splenocytes", "value": "n.s."}]}]}
